Source: patent publication US10745382B2 (BRISTOL-MYERS SQUIBB COMPANY, priority 2015, dated 2020)
pIC50: −log10 of the molar value.

What follows are compounds tested against T1, PD-1/PD-L1 (Homo sapiens, UniProt Q9NZQ7) (assay: PD-1/PD-L1 Homogenous Time-Resolved Fluorescence (HTRF) binding assay). Details: PD-L1-His 10 nM, PD-1-Ig 20 nM; value given as range class; read-out: Range or IC50.
T1 construct: made in house; host or cells: HEK293T
Method: The ability of the compounds of formula (I) to bind to PD-L1 was investigated using a PD-1/PD-L1 Homogenous Time-Resolved Fluorescence (HTRF) binding assay.
Homogenous Time-Resolved Fluorescence (HTRF) Binding Assay.
All binding studies were performed in an HTRF assay buffer consisting of dPBS supplemented with 0.1% […] bovine serum albumin and 0.05% (v/v) Tween-20. […] HTRF detection was achieved using europium crypate-labeled anti-Ig (1 nM final) and allophycocyanin (APC) labeled anti-His (20 nM final). Antibodies were diluted in HTRF detection buffer and 5 μl was dispensed on top of the binding reaction. […] Additional binding assays were established between the human proteins PD-1-Ig/PD-L2-His (20 & 5 nM, respectively) and CD80-His/PD-L1-Ig (100 & 10 nM, respectively). […]

T1 sequence (Q9NZQ7 with tags, fused parts or gaps): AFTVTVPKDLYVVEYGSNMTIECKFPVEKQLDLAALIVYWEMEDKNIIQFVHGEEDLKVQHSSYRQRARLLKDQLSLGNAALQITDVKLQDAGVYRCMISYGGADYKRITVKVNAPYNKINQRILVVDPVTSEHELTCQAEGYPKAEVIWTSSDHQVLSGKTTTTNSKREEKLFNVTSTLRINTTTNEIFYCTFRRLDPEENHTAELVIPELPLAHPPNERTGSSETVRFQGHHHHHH

Compound	pIC50
Cc1c(COc2cc(OCc3cncc(C(N)=O)c3)c(CN[C@@](C)(CO)C(=O)O)cc2Cl)cccc1-c1cccc(OCCCN2CCC(O)(CC(=O)O)C2)c1Cl (stereo partly drawn) [Example 1518, (2S)-2-((2-((5-carbamoylpyridin-3-yl)methoxy)-4-((3′-(3-(3-(carboxymethyl)-3-hydroxypyrrolidin-1-yl)propoxy)-2′-chloro-2-methyl-[1,1′-biphenyl]-3-yl)methoxy)-5-chlorobenzyl)amino)-3-hydroxy-2-methylpropanoic acid]	7.00 to 8.00
CCOC(=O)C1(CO)CCN(CCCOc2cccc(-c3cccc(COc4cc(OCc5cncc(C#N)c5)c(CNC(C)(CO)CO)cc4Cl)c3C)c2Cl)C1 (centres unmarked) [Example 1117, ethyl 1-(3-((2-chloro-3′-((2-chloro-5-((5-cyanopyridin-3-yl)methoxy)-4-(((1,3-dihydroxy-2-methylpropan-2-yl)amino)methyl)phenoxy)methyl)-2′-methyl-[1,1′-biphenyl]-3-yl)oxy)propyl)-3-(hydroxymethyl)pyrrolidine-3-carboxylate]	8.00 to 9.68
COC(=O)C1(O)CCN(CCCOc2cccc(-c3cccc(COc4cc(OCc5cncc(C#N)c5)c(CN5CCC(O)(C(=O)OC)CC5)cc4Cl)c3C)c2C)CC1 [Example 1091, methyl 1-(5-chloro-2-((5-cyanopyridin-3-yl)methoxy)-4-((3′-(3-(4-hydroxy-4-(methoxycarbonyl)piperidin-1-yl)propoxy)-2,2′-dimethyl-[1,1′-biphenyl]-3-yl)methoxy)benzyl)-4-hydroxypiperidine-4-carboxylate]	8.00 to 9.68

The remaining lines, values ahead:

pIC50	Compound
5.70 to 7.00	CCN(CC)C(=O)c1cccc(-c2cccc(COc3cc(OCc4cncc(C#N)c4)c(CNC(CO)CO)cc3Cl)c2C)c1C [Example 4044, 3′-((2-chloro-5-((5-cyanopyridin-3-yl)methoxy)-4-(((1,3-dihydroxypropan-2-yl)amino)methyl)phenoxy)methyl)-N,N-diethyl-2,2′-dimethyl-[1,1′-biphenyl]-3-carboxamide]
8.00 to 9.68	CNC(=O)c1cccc(-c2cccc(COc3cc(OCc4cncc(C#N)c4)c(CNC(C)(CO)CO)cc3Cl)c2C)c1C [Example 4016, 3′-((2-chloro-5-((5-cyanopyridin-3-yl)methoxy)-4-(((1,3-dihydroxy-2-methylpropan-2-yl)amino)methyl)phenoxy)methyl)-N,2,2′-trimethyl-[1,1′-biphenyl]-3-carboxamide]
8.00 to 9.68	Cc1c(COc2cc(OCc3cncc(C#N)c3)c(CN3CCCC[C@H]3C(=O)O)cc2Cl)cccc1-c1cccc(OCCCN2CCC(O)(CC(=O)O)C2)c1C (mixture of isomers) [Example 1519, (2S)-1-(4-((3′-(3-(3-(carboxymethyl)-3-hydroxypyrrolidin-1-yl)propoxy)-2,2′-dimethyl-[1,1′-biphenyl]-3-yl)methoxy)-5-chloro-2-((5-cyanopyridin-3-yl)methoxy)benzyl)piperidine-2-carboxylic acid]
8.00 to 9.68	Cc1c(COc2cc(OCc3cncc(C#N)c3)c(CN[C@@](C)(CO)C(=O)O)cc2Cl)cccc1-c1cccc(OCCCN2CCCCC2)c1C [Example 2272, (S)-2-((5-chloro-2-((5-cyanopyridin-3-yl)methoxy)-4-((2,2′-dimethyl-3′-(3-(piperidin-1-yl)propoxy)-[1,1′-biphenyl]-3-yl)methoxy)benzyl)amino)-3-hydroxy-2-methylpropanoic Acid]
8.00 to 9.68	Cc1c(OCCCN2CC[C@@H](O)C2)cccc1-c1cccc(COc2cc(OCC(N)=O)c(CNC(CO)CO)cc2Cl)c1Cl [Example 2316, (R)-2-(4-chloro-5-((2-chloro-3′-(3-(3-hydroxypyrrolidin-1-yl)propoxy)-2′-methyl-[1,1′-biphenyl]-3-yl)methoxy)-2-(((1,3-dihydroxypropan-2-yl)amino)methyl)phenoxy)acetamide]
